Source: patent US10576062B2, “Carbamoyloxymethyl triazole cyclohexyl acids as LPA antagonists” (Bristol-Myers Squibb Company, priority 2016, dated 2020)

What follows are compounds tested against T1, human LPA1 (Homo sapiens, UniProt Q92633) (assay: LPA1 functional antagonist assay (LPA-induced calcium flux)). Conditions: CHO cells overexpressing human LPA1; inhibition of calcium flux induced by 10 nM LPA; read-out: hLPA1 IC50.
T1 construct: expressed in transfected cells; host or cells: Chinese hamster ovary (CHO) cells
T1 sequence (Q92633 whole entry): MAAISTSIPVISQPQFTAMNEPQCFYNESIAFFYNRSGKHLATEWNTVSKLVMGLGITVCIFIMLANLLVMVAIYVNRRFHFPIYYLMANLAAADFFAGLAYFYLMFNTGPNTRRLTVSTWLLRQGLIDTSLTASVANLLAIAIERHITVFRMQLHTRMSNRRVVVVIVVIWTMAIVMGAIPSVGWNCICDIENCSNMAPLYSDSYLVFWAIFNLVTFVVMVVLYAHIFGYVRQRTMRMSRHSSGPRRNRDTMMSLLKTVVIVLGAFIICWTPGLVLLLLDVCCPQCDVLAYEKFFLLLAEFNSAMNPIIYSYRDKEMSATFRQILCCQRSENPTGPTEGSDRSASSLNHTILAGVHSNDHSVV
Type: cell-based
Outline: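 CHO cells overexpressing human LPA1, loaded with calcium dye 30 min at 37° C, were preincubated 20 min at room temperature with compound (0.08 nM–5 μM, 0.5% DMSO) in HBSS/20 mM HEPES/0.1% fatty acid-free BSA.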

| SMILES | IC50 |
| --- | --- |
| CCCCN(C)C(=O)OCc1c(-c2cnc(O[C@H]3CCC[C@H](C(=O)O)C3)cn2)nnn1C [Example 212, (1S,3S)-3-((5-(5-(((butyl(methyl)carbamoyl)oxy)methyl)-1-methyl-1H-1,2,3-triazol-4-yl)pyrazin-2-yl)oxy)cyclohexane-1-carboxylic acid] | 40 nM |
| CN(CC1CC1)C(=O)OCc1c(-c2cnc(O[C@H]3CCC[C@H](C(=O)O)C3)cn2)nnn1C [Example 213, (1S,3S)-3-((5-(5-((((cyclopropylmethyl)(methyl)carbamoyl)oxy)methyl)-1-methyl-1H-1,2,3-triazol-4-yl)pyrazin-2-yl)oxy)cyclohexane-1-carboxylic acid] | 1070 nM |
| CN(CC1CCC1)C(=O)OCc1c(-c2cnc(O[C@H]3CCC[C@H](C(=O)O)C3)cn2)nnn1C [Example 214, (1S,3S)-3-((5-(5-((((cyclobutylmethyl)(methyl)carbamoyl)oxy)methyl)-1-methyl-1H-1,2,3-triazol-4-yl)pyrazin-2-yl)oxy)cyclohexane-1-carboxylic acid] | 68 nM |
| CN(C(=O)OCc1c(-c2cnc(O[C@H]3CCC[C@H](C(=O)O)C3)cn2)nnn1C)C1CCCC1 [Example 215, (1S,3S)-3-((5-(5-(((cyclopentyl(methyl)carbamoyl)oxy)methyl)-1-methyl-1H-1,2,3-triazol-4-yl)pyrazin-2-yl)oxy)cyclohexane-1-carboxylic acid] | 84 nM |
| CCCN(C)C(=O)OCc1c(-c2cnc(O[C@H]3CCC[C@H](C(=O)O)C3)c(C)n2)nnn1C [Example 218, (1S,3S)-3-((3-methyl-5-(1-methyl-5-(((methyl(propyl)carbamoyl)oxy)methyl)-1H-1,2,3-triazol-4-yl)pyrazin-2-yl)oxy)cyclohexane-1-carboxylic Acid] | 194 nM |
| CCCCN(C)C(=O)OCc1c(-c2cnc(O[C@H]3CCC[C@H](C(=O)O)C3)c(C)n2)nnn1C [Example 219, (1S,3S)-3-((5-(5-(((butyl(methyl)carbamoyl)oxy)methyl)-1-methyl-1H-1,2,3-triazol-4-yl)-3-methylpyrazin-2-yl)oxy)cyclohexane-1-carboxylic acid] | 21 nM |
| Cc1nc(-c2nnn(C)c2COC(=O)N(C)CC2CC2)cnc1O[C@H]1CCC[C@H](C(=O)O)C1 [Example 220, (1S,3S)-3-((5-(5-((((cyclopropyl-methyl)(methyl)carbamoyl)oxy)methyl)-1-methyl-1H-1,2,3-triazol-4-yl)-3-methyl-pyrazin-2-yl)oxy)cyclohexane-1-carboxylic acid] | 149 nM |
| Cc1nc(-c2nnn(C)c2COC(=O)N(C)CCC(C)C)cnc1O[C@H]1CCC[C@H](C(=O)O)C1 [Example 222, (1S,3S)-3-((5-(5-(((isopentyl(methyl)carbamoyl)oxy)methyl)-1-methyl-1H-1,2,3-triazol-4-yl)-3-methylpyrazin-2-yl)oxy)cyclohexane-1-carboxylic acid] | 19 nM |
| CCCCCN(C)C(=O)OCc1c(-c2cnc(O[C@H]3CCC[C@H](C(=O)O)C3)c(C)n2)nnn1C [Example 223, (1S,3S)-3-((3-methyl-5-(1-methyl-5-(((methyl(pentyl)carbamoyl)oxy)methyl)-1H-1,2,3-triazol-4-yl)pyrazin-2-yl)oxy)cyclohexane-1-carboxylic acid] | 56 nM |
| Cc1nc(-c2nnn(C)c2COC(=O)N(C)CC(C)C)cnc1O[C@H]1CCC[C@H](C(=O)O)C1 [Example 224, (1S,3S)-3-((5-(5-(((isobutyl(methyl)carbamoyl)oxy)methyl)-1-methyl-1H-1,2,3-triazol-4-yl)-3-methylpyrazin-2-yl)oxy)cyclohexane-1-carboxylic acid] | 121 nM |
| Cc1nc(-c2nnn(C)c2COC(=O)N(C)CCC2CC2)cnc1O[C@H]1CCC[C@H](C(=O)O)C1 [Example 225, (1S,3S)-3-((5-(5-((((2-cyclopropylethyl)(methyl)carbamoyl)oxy)methyl)-1-methyl-1H-1,2,3-triazol-4-yl)-3-methylpyrazin-2-yl)oxy)cyclohexane-1-carboxylic acid] | 70 nM |
| Cc1nc(-c2nnn(C)c2COC(=O)N(C)C2CCCC2)cnc1O[C@H]1CCC[C@H](C(=O)O)C1 [Example 226, (1S,3S)-3-((5-(5-(((cyclopentyl(methyl)carbamoyl)oxy)methyl)-1-methyl-1H-1,2,3-triazol-4-yl)-3-methylpyrazin-2-yl)oxy)cyclohexane-1-carboxylic acid] | 49 nM |
| Cc1nc(-c2nnn(C)c2COC(=O)N(C)CC2CCCC2)cnc1O[C@H]1CCC[C@H](C(=O)O)C1 [Example 227, (1S,3S)-3-((5-(5-((((cyclopentylmethyl)(methyl)carbamoyl)oxy)methyl)-1-methyl-1H-1,2,3-triazol-4-yl)-3-methylpyrazin-2-yl)oxy)cyclohexane-1-carboxylic acid] | 18 nM |
| Cc1nc(-c2nnn(C)c2COC(=O)N(C)Cc2ccccc2)cnc1O[C@H]1CCC[C@H](C(=O)O)C1 [Example 228, (1S,3S)-3-((5-(5-(((benzyl(methyl)carbamoyl)oxy)methyl)-1-methyl-1H-1,2,3-triazol-4-yl)-3-methylpyrazin-2-yl)oxy)cyclohexane-1-carboxylic acid] | 60 nM |
| Cc1nc(-c2nnn(C)c2COC(=O)N(C)C2CCC2)cnc1O[C@H]1CCC[C@H](C(=O)O)C1 [Example 229, (1S,3S)-3-((5-(5-(((cyclobutyl(methyl)carbamoyl)oxy)methyl)-1-methyl-1H-1,2,3-triazol-4-yl)-3-methylpyrazin-2-yl)oxy)cyclohexane-1-carboxylic acid] | 76 nM |
| Cc1nc(-c2nnn(C)c2COC(=O)N(C)CCCF)cnc1O[C@H]1CCC[C@H](C(=O)O)C1 [Example 230, (1S,3S)-3-((5-(5-((((3-fluoropropyl)(methyl)carbamoyl)oxy)methyl)-1-methyl-1H-1,2,3-triazol-4-yl)-3-methylpyrazin-2-yl)oxy)cyclohexane-1-carboxylic acid] | 390 nM |
| Cc1nc(-c2nnn(C)c2COC(=O)N(C)CC(C)(C)C)cnc1O[C@H]1CCC[C@H](C(=O)O)C1 [Example 231, (1S,3S)-3-((3-methyl-5-(1-methyl-5-(((methyl(neopentyl)carbamoyl)oxy)methyl)-1H-1,2,3-triazol-4-yl)pyrazin-2-yl)oxy)cyclohexane-1-carboxylic acid] | 88 nM |
| Cc1nc(-c2nnn(C)c2COC(=O)N(C)CC(C)(C)F)cnc1O[C@H]1CCC[C@H](C(=O)O)C1 [Example 232, (1S,3S)-3-((5-(5-((((2-fluoro-2-methylpropyl)(methyl)carbamoyl)oxy)methyl)-1-methyl-1H-1,2,3-triazol-4-yl)-3-methylpyrazin-2-yl)oxy)cyclohexane-1-carboxylic acid] | 191 nM |
| Cc1nc(-c2nnn(C)c2COC(=O)N(C)CC2(F)CCC2)cnc1O[C@H]1CCC[C@H](C(=O)O)C1 [Example 233, (1S,3S)-3-((5-(5-(((((1-fluoro-cyclobutyl)methyl)(methyl)carbamoyl)oxy)methyl)-1-methyl-1H-1,2,3-triazol-4-yl)-3-methylpyrazin-2-yl)oxy)cyclohexane-1-carboxylic acid] | 122 nM |
| Cc1nc(-c2nnn(C)c2COC(=O)N(C)CC2(F)CCCC2)cnc1O[C@H]1CCC[C@H](C(=O)O)C1 [Example 234, (1S,3S)-3-((5-(5-(((((1-fluorocyclopentyl)methyl)(methyl)carbamoyl)oxy)methyl)-1-methyl-1H-1,2,3-triazol-4-yl)-3-methylpyrazin-2-yl)oxy)cyclohexane-1-carboxylic acid] | 72 nM |
| Cc1nc(-c2nnn(C)c2COC(=O)N(C)C[C@@H]2C[C@H]2C)cnc1O[C@H]1CCC[C@H](C(=O)O)C1 [Example 235, (1S,3S)-3-((3-methyl-5-(1-methyl-5-(((methyl(((1R,2R)-2-methylcyclopropyl)methyl)carbamoyl)oxy)methyl)-1H-1,2,3-triazol-4-yl)pyrazin-2-yl)oxy)cyclohexane-1-carboxylic acid] | 70 nM |
| Cc1nc(-c2nnn(C)c2COC(=O)N(C)C[C@H]2C[C@@H]2C)cnc1O[C@H]1CCC[C@H](C(=O)O)C1 [Example 236, (1S,3S)-3-((3-methyl-5-(1-methyl-5-(((methyl(((1S,2S)-2-methylcyclopropyl)methyl)carbamoyl)oxy)methyl)-1H-1,2,3-triazol-4-yl)pyrazin-2-yl)oxy)cyclohexane-1-carboxylic acid] | 46 nM |
| CN(CC1CC1)C(=O)OCc1c(-c2cnc(O[C@H]3CCC[C@H](C(=O)O)C3)c(C(F)(F)F)c2)nnn1C [Example 237, (1S,3S)-3-((5-(5-((((cyclopropylmethyl)(methyl)carbamoyl)oxy)methyl)-1-methyl-1H-1,2,3-triazol-4-yl)-3-(trifluoromethyl)pyridin-2-yl)oxy)cyclohexane-1-carboxylic acid] | 2400 nM |
| CN(C(=O)OCc1c(-c2cnc(O[C@H]3CCC[C@H](C(=O)O)C3)c(C(F)(F)F)c2)nnn1C)C1CCCC1 [Example 238, (1S,3S)-3-((5-(5-(((cyclopentyl(methyl)carbamoyl)oxy)methyl)-1-methyl-1H-1,2,3-triazol-4-yl)-3-(trifluoromethyl)pyridin-2-yl)oxy)cyclohexane-1-carboxylic acid] | 174 nM |
| CN(CC1CCC1)C(=O)OCc1c(-c2cnc(O[C@H]3CCC[C@H](C(=O)O)C3)c(C(F)(F)F)c2)nnn1C [Example 239, (1S,3S)-3-((5-(5-((((cyclobutylmethyl)(methyl)carbamoyl)oxy)methyl)-1-methyl-1H-1,2,3-triazol-4-yl)-3-(trifluoromethyl)pyridin-2-yl)oxy)cyclohexane-1-carboxylic acid] | 440 nM |
| CN(C(=O)OCc1c(-c2cnc(O[C@H]3CCC[C@H](C(=O)O)C3)c(C(F)(F)F)c2)nnn1C)C1CCC1 [Example 240, (1S,3S)-3-((5-(5-(((cyclobutyl(methyl)carbamoyl)oxy)methyl)-1-methyl-1H-1,2,3-triazol-4-yl)-3-(trifluoromethyl)pyridin-2-yl)oxy)cyclohexane-1-carboxylic acid] | 1210 nM |
